Reference: patent US7803795B2, “Phthalazine derivatives as parp inhibitors” (Janssen Pharmaceutica N.V., priority 2004, dated 2010)

Target: T1, PARP-1 enzyme (Homo sapiens, UniProt P09874)
T1 construct: made in house
Assay: in vitro Scintillation Proximity Assay (SPA) for PARP-1 inhibitory activity
Format: biochemical
Conditions: [3H]-NAD+, biotinylated histones, nicked DNA; dose-response 10^-5 M to 10^-8 M; read-out: in vitro SPA assay PARP-1 pIC50 (converted)
Experimental: In vitro Scintillation Proximity Assay (SPA) for PARP-1 Inhibitory Activity
Compounds of the present invention were tested in an in vitro assay based on SPA technology (proprietary to Amersham Pharmacia Biotech).
In principle, the assay relies upon the well established SPA technology for the detection of poly(ADP-ribosylation of biotinylated target proteins, i.e histones. This ribosylation is induced using nicked DNA activated PARP-1 enzyme and [^3H]-nicotinamide adenine dinucleotide ([^3H]-NAD^+) as ADP-ribosyl donor.
As inducer of PARP-1 enzyme activity, nicked DNA was prepared. For this, 25 mg of DNA (supplier: Sigma) was dissolved in 25 ml DNAse buffer (10 mM Tris-HCl, pH 7.4; 0.5 mg/ml Bovine Serum Albumine (BSA); 5 mM MgCl2.6H2O and 1 mM KCl) to which 50 Al DNAse solution (1 mg/ml in 0.15 M NaCl) was added. After an incubation of 90 min. at 37° C., the reaction was terminated by adding 1.45 g NaCl, followed by a further incubation at 58° C. for 15 min. The reaction mixture was cooled on ice and dialysed at 4° C. for respectively 1.5 and 2 hours against 1.51 of 0.2 M KCl, and twice against 1.51 of 0.01 M KCl for 1.5 and 2 h respectively. The mixture was aliquoted and stored at −20° C. Histones (1 mg/ml, type II-A, supplier: Sigma) were biotinylated using the biotinylation kit of Amersham and stored aliquoted at −20° C. A stock solution of 100 mg/ml SPA poly(vinyl toluene) (PVT) beads (supplier: Amersham) was made in PBS. A stock solution of [^3H]-NAD^+ was made by adding 120 μl of [^3H]-NAD^+ (0.1 mCi/ml, supplier: NEN) to 6 ml incubation buffer (50 mM Tris/HCl, pH 8; 0.2 mM DTT; 4 mM MgCl2). A solution of 4 mM NAD^+ (supplier: Roche) was made in incubation buffer (from a 100 mM stock solution in water stored at −20° C.). The PARP-1 enzyme was produced using art known techniques, i.e. cloning and expression of the protein starting from human liver cDNA. Information concerning the used protein sequence of the PARP-1 enzyme including literature references can be found in the Swiss-Prot database under primary accession number P09874. Biotinylated histones and PVT-SPA beads were mixed and pre-incubated for 30 min. at room temperature. PARP-1 enzyme (concentration was lot dependent) was mixed with the nicked DNA and the mixture was pre-incubated for 30 min. at 4° C. Equal parts of this histones/PVT-SPA beads solution and PARP-1 enzyme/DNA solution were mixed and 75 μl of this mixture together with 1 μl of compound in DMSO and 25 μl of [^3H]-NAD^+ was added per well into a 96-well microtiterplate. The final concentrations in the incubation mixture were 2 μg/ml for the biotinylated histones, 2 mg/ml for the PVT-SPA beads, 2 μg/ml for the nicked DNA and between 5-10 μg/ml for the PARP-1 enzyme. After incubation of the mixture for 15 min. at room temperature, the reaction was terminated by adding 100 μl of 4 mM NAD^+ in incubation buffer (final concentration 2 mM) and plates were mixed.
The beads were allowed to sediment for at least 15 min. and plates transferred to a TopCountNXT™ (Packard) for scintillation counting, values were expressed as counts per minute (cpm). For each experiment, controls (containing PARP-1 enzyme and DMSO without compound), a blank incubation (containing DMSO but no PARP-1 enzyme or compound) and samples (containing PARP-1 enzyme and compound dissolved in DMSO) were run in parallel. All compounds tested were dissolved and eventually further diluted in DMSO. […] In each test, the blank value was subtracted from both the control and the sample values. The control sample represented maximal PARP-1 enzyme activity. For each sample, the amount of cpm was expressed as a percentage of the mean cpm value of the controls. When appropriate, IC50-values (concentration of the drug, needed to reduce the PARP-1 enzyme activity to 50% of the control) were computed using linear interpolation between the experimental points just above and below the 50% level. […]

T1 sequence (P09874 whole entry): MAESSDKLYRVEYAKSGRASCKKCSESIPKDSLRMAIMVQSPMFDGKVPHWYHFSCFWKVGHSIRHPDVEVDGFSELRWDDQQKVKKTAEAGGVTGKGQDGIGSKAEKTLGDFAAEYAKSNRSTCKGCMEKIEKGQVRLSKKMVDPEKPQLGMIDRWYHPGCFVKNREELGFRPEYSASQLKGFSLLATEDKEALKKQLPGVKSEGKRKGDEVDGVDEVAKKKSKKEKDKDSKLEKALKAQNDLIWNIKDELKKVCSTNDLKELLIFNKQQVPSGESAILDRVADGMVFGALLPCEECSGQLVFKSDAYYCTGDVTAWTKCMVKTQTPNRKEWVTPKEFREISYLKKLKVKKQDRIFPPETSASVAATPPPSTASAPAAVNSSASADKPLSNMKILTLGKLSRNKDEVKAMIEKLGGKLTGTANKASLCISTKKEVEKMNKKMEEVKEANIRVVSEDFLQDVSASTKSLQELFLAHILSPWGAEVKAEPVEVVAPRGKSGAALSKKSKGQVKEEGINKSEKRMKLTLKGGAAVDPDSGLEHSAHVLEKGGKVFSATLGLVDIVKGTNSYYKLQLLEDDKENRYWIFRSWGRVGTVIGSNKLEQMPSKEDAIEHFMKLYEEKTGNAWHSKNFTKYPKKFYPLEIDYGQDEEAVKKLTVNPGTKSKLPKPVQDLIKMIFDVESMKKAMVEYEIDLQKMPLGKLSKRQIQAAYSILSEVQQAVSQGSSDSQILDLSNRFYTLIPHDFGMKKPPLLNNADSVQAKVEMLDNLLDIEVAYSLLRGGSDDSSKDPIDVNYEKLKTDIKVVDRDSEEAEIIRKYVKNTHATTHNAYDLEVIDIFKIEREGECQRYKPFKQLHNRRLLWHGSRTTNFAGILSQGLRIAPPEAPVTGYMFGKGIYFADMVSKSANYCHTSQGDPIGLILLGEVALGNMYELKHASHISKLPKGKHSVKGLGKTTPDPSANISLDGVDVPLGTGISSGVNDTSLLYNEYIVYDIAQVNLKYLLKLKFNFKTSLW

Row | SMILES | IC50 [µM]
1 | O=c1[nH]nc(NC2CCCNCC2)c2ccccc12 (centres unmarked) [Compound 34] | 0.12
2 | CCOC(=O)N1CCC(Nc2n[nH]c(=O)c3ccccc23)C1 (centres unmarked) [Compound 48] | 3.07
3 | CCOC(=O)N1CCC(c2n[nH]c(=O)c3ccccc23)CC1 [Compound 25] | 2.99
4 | Cc1nnc(N2CCN(CCn3c(=O)[nH]c4ccccc4c3=O)CC2)c2ccccc12 [Compound 70] | 3.44
5 | CCOC(=O)N1CCCC(Nc2n[nH]c(=O)c3ccccc23)CC1 (centres unmarked) [Compound 50] | 2.51
6 | Clc1nnc(NC2CCN(CCCCOc3ccccc3)CC2)c2ccccc12 [Compound 59] | 3.3
7 | O=c1[nH]nc(C2CCN(CCCOc3ccc(F)cc3)CC2)c2ccccc12 [Compound 13] | 0.0755
8 | Cc1nnc(N2CCN(CCCC(c3ccc(F)cc3)c3ccc(F)cc3)CC2)c2ccccc12 [Compound 29] | 1.78
9 | Cc1nc2ccccn2c(=O)c1CCN1CCN(c2nnc(C)c3ccccc23)CC1 [Compound 72] | 8.97
10 | Cc1nc2n(c(=O)c1CCN1CCN(c3nnc(C)c4ccccc34)CC1)CCCS2 [Compound 76] | 3.63
11 | CCOC(=O)N1[C@@H]2CC[C@H]1C[C@H](Nc1nnc(Cl)c3ccccc13)C2 [Compound 24] | 0.973
12 | O=c1[nH]nc(NC2CCN(CCCCOc3ccccc3)CC2)c2ccccc12 [Compound 46] | 0.843
13 | Fc1ccc(C(CCCN2CCN(c3nnc(Cl)c4ccccc34)CC2)c2ccc(F)cc2)cc1 [Compound 57] | 1.97
14 | CCOC(=O)N1[C@@H]2CC[C@H]1C[C@H](Nc1n[nH]c(=O)c3ccccc13)C2 [Compound 11] | 0.0867
15 | O=c1[nH]nc(NC2CCCN(CCCC(c3ccc(F)cc3)c3ccc(F)cc3)CC2)c2ccccc12 (centres unmarked) [Compound 30] | 0.442
16 | O=c1[nH]nc(N2CCC(c3cccc(C(F)(F)F)c3)C2)c2ccccc12 (centres unmarked) [Compound 55] | 1.65
17 | O=c1[nH]nc(N2CCN(CCCC(c3ccc(F)cc3)c3ccc(F)cc3)CC2)c2ccccc12 [Compound 52] | 0.435
18 | O=c1[nH]nc(NC2CCN(C/C=C/c3ccccc3)CC2)c2ccccc12 [Compound 65] | 0.851
19 | O=c1[nH]nc(NCC2CCCN(CCCC(c3ccc(F)cc3)c3ccc(F)cc3)C2)c2ccccc12 (centres unmarked) [Compound 49] | 3.82
20 | CCOC(=O)N1CCC(Nc2n[nH]c(=O)c3ccccc23)CC1 [Compound 56] | 5.64
21 | Cc1nc2sccn2c(=O)c1CCN1CCN(c2nnc(C)c3ccccc23)CC1 [Compound 73] | 1.9

Row | SMILES | IC50 [µM]
22 | O=c1[nH]nc(C2CCN(CCCC(c3ccc(F)cc3)c3ccc(F)cc3)CC2)c2ccccc12 [Compound 67] | 0.303
23 | Cc1nc2scc(C)n2c(=O)c1CCN1CCN(c2nnc(C)c3ccccc23)CC1 [Compound 74] | 3.21
24 | Cc1nc2n(c(=O)c1CCN1CCN(c3nnc(C)c4ccccc34)CC1)CCS2 [Compound 75] | 4.24
25 | O=c1[nH]nc(NCC2CCCN(Cc3ccccc3)C2)c2ccccc12 (centres unmarked) [Compound 44] | 1.12
26 | O=c1[nH]nc(NC2CCN(C[C@@H](O)[C@@H]3CCc4ccccc4O3)CC2)c2ccccc12 (relative stereo) [Compound 27] | 0.857
27 | O=c1[nH]nc(C2CCN(Cc3ccccc3)CC2)c2ccccc12 [Compound 1] | 0.284
28 | CN(c1nc2ccccc2s1)C1CCN(c2nnc(Cl)c3ccccc23)CC1 [Compound 61] | 1.29
29 | CCOC(=O)N1CCN(c2nnc(Cl)c3ccccc23)CC1 [Compound 58] | 10
30 | O=c1[nH]nc(NC2CCCN(Cc3ccccc3)C2)c2ccccc12 (centres unmarked) [Compound 53] | 1.07
31 | O=c1[nH]nc(N[C@@H]2C[C@H]3CC[C@@H](C2)N3)c2ccccc12 [Compound 15] | 0.139
32 | O=c1[nH]nc(C2CCNCC2)c2ccccc12 [Compound 4] | 0.251
33 | Clc1nnc(NC2CCN(Cc3ccccc3)C2)c2ccccc12 (centres unmarked) [Compound 12] | 1.14
34 | Clc1nnc(N2CCN(c3ccccc3)CC2)c2ccccc12 [Compound 77] | 1.32
35 | Cc1nnc(N2CCN(CCn3c(=O)[nH]c4ccccc43)CC2)c2ccccc12 [Compound 71] | 7.41
36 | O=c1[nH]nc(C2CCN(c3ncccn3)CC2)c2ccccc12 [Compound 69] | 2.15
37 | O=c1[nH]nc(NC2CCN(Cc3ccccc3)C2)c2ccccc12 (centres unmarked) [Compound 51] | 0.432
38 | COc1ccc(CCN2CCC(Nc3n[nH]c(=O)c4ccccc34)CC2)cc1 [Compound 63] | 0.684
39 | O=c1[nH]nc(C2CCN(C/C=C/c3ccccc3)CC2)c2ccccc12 [Compound 66] | 0.767
40 | O=c1[nH]nc(C2CCN(CCCCOc3ccccc3)CC2)c2ccccc12 [Compound 68] | 0.274
41 | O=c1[nH]nc(N[C@@H]2C[C@H]3CC[C@@H](C2)N3CCCC(c2ccc(F)cc2)c2ccc(F)cc2)c2ccccc12 [Compound 3] | 0.43
